Key:
[1] = system: MDA-MB-231, Hs-578T, A549, H460, MKN28, MKN74, SK-MEL-5, SK-MEL-28, RKO, HCT116, PC3 and Panc-1 cancer cells; experiment: Colony formation assay; type: cell-based; settings: for colony formation inhibition: low concentrations (50 nM and 200 nM), 10 days
Description: The cells (2×10^3 cells/well) were cultured in 6-well plates for 24 hours, and then treated with the compounds of the present invention for 2 hours. The cells were placed in fresh complete media and additionally cultured for 10 days. The cells were washed with PBS and stained with crystal violet. Blue-stained colonies were manually counted.
Among the cancer cells prepared according to Experimental Example 1, breast cancer cell lines MDA-MB-231 and Hs-578T; lung cancer cell lines A549 and H460; stomach cancer cell lines MKN28 and MKN74; skin cancer cell lines SK-MEL-5 and SK-MEL-28; colon cancer cell lines RKO and HCT116; a prostate cancer cell line PC3; and a pancreatic cancer cell line Panc-1 were treated with DMSO as a control vehicle and synthetic epidithiodioxopiperazine derivatives A2, A5, and A10.

[2] = system: various cancer cell lines and three normal cells (MCF-10A, IMR90, and CCD-841); experiment: Cell viability assay (Cell Titer-Glo), cancer cells versus normal cells; type: cell-based; settings: 50 nM and 200 nM
Description: FIG. 5 is diagrams illustrating the cytotoxic effect of a synthetic epidithiodioxopiperazine derivative on various cancer cells and normal cells. (A) to (J) respectively illustrate the cell viability quantified by the Cell Titer-Glo assay system of breast cancer cells, lung cancer cells, stomach cancer cells, skin cancer cells, colon cancer cells, prostate cancer cells, pancreatic cancer cells, normal breast cells, normal fibroblasts, and normal epithelial cells after treating with the labelled ETP compound for 24 hours (n=3). And IC50 values are determined using a linear regression program (GraphPad Prism) and illustrated in (K).
In order to determine the IC50 value for examining cytotoxicity, the cells (2×10^5 cells/well) were aliquoted into 96-well plates and treated with the labelled compounds at various concentrations for 24 hours. The cell viability was measured using the Cell Titer-Glo Luminescence Assay Reagent Kit (Promega, G7570), and the luminescence was read using an Envision plate reader. The percentage of cell growth with respect to that in the vehicle control group (0.1% DMSO-treated cells) was calculated.

[3] = system: patient-derived lung adenocarcinoma tumor; experiment: Patient-derived tumor xenograft experiment; type: in vivo, mice
Description: Animal experiments were approved by the Institutional Animal Care and Use Committee (IACUC) of Seoul National University College of Medicine and complied with ARRIVE (Animal Research: Reporting of In Vivo Experiments) guidelines. Patient-derived lung tumors were subcutaneously implanted into the backs of 4-week-old and 17-week-old NSG (NOD-scid-IL2Rgnull) and humanized NSG (HuNSG) mice, respectively. The compound represented by Chemical Formula 7 (A5, 300 mg/kg) and/or pembrolizumab (humanized anti-PD-1 antibody, 5 mg/kg) dissolved in PBS were intraperitoneally injected to the mice every 3 days for 3 weeks and every 5 days for 3 weeks, respectively. The tumors were allowed to grow for 28 days, excised, and quantified. The tumor volume was measured every 3 days using Vernier calipers and calculated using the following equation.
In the equation, a and b mean the superficial diameter of major axis and the superficial diameter of minor axis, respectively.
While the mouse models prepared by implanting a patient-derived lung adenocarcinoma tumor according to Experimental Example 10 were not treated, were treated only with a representative synthetic epidithiodioxopiperazine derivative A5, or were concurrently treated with A5 and pembrolizumab, a humanized antibody known to be used for cancer immunotherapy, the changes in volume of the tumor were periodically observed, and the results are illustrated in FIG. 15.

[4] = Cell proliferation assay (WST-1): cytotoxicity and proliferation of breast cancer cells; type: cell-based; settings: human; up to a concentration of about 200 nM; breast cancer cells MDA-MB-231 and Hs-578T
Description: (§1) The cells (2×10^3 cells/well) were cultured in 96-well plates for 24 hours, and then treated with the compound of the present invention for 2 hours. The cells were placed in fresh complete media and cultured for the labelled time. For cell proliferation, the cells were treated with WST-1 reagent for 1 hour, and the absorbance of the formazan product at 450 nm was measured using a UV/VIS ELISA reader.
(§2) Among the cancer cells prepared according to Experimental Example 1, breast cancer cell lines MDA-MB-231 and Hs-578T were treated with DMSO as a control vehicle and a natural epidithiodioxopiperazine derivative gliotoxin, the cytotoxicity and proliferation rate at each concentration of the treated compound were calculated according to Experimental Example 2, and the results are illustrated in FIG. 1.

[5] = system: breast cancer cell lines MDA-MB-231 and Hs-578T; experiment: as above; type: cell-based; settings: breast cancer cells
Description: as §1, §2

[6] = system: breast cancer cell lines MDA-MB-231 and Hs-578T; experiment: Migration assay (trans-well); type: cell-based; settings: 24 hours
Description: The cells (2×10^5 cells/well) were cultured in 6-well plates for 24 hours, and then treated with the compounds of the present invention for 2 hours. After treatment, the cells were serum-starved by further culturing in fresh culture medium containing 0.5% FBS for 12 hours. The serum-starved cells (5×10^4 cells/well) were transferred to the upper chamber (8 μm pore size) of a 24-well trans-well culture plate (Costar) with the bottom layer pre-coated with 0.1% gelatin B (Sigma Aldrich). The lower chamber was filled with culture medium containing 20% FBS. Twenty-four hours after plating, non-migrated cells in the upper chamber were removed. After the cells which had not migrated from the upper chamber were removed, the upper chamber was fixed with methanol and stained with 0.6% hematoxylin (DAKO). The stained cells were photographed and counted. The number of migratory cells was determined by averaging the values from three wells.
Among the cancer cells prepared according to Experimental Example 1, breast cancer cell lines MDA-MB-231 and Hs-578T were treated with DMSO as a control vehicle and natural epidithiodioxopiperazine derivative gliotoxin, cell migration to the FBS-containing medium was observed and the number of migrated cells was counted according to Experimental Example 5, and the results are illustrated in FIGS. 3 and 4.

[7] = system: breast cancer cell lines MDA-MB-231 and Hs-578T; experiment: Cell cycle assay (PI staining, flow cytometry); type: cell-based; settings: treated 2 hours, cultured 24 hours
Description: The cells (2×10^5 cells/well) were cultured in 6-well plates for 24 hours, and then treated with the compounds of the present invention for 2 hours. The cells were placed in fresh complete media and further cultured for 24 hours. The cells were fixed overnight in 70% ethanol at 4° C., washed with cold PBS, and re-suspended in PBS solution containing RNase A (10 μg/mL) at 37° C. for 30 minutes. The suspended cells were stained with propidium iodide (PI, 50 μg/mL, Invitrogen) for 5 minutes, and flow cytometry (FACS Calibur, BD) was performed. The cell population was analyzed using ModiFit LT software.
Among the cancer cells prepared according to Experimental Example 1, breast cancer cell lines MDA-MB-231 and Hs-578T were not treated or were treated with a natural epidithiodioxopiperazine derivative gliotoxin, the cell cycle was analyzed and the cell percentage in G1 phase was calculated according to Experimental Example 4, and the results are illustrated in FIG. 2.

Row | Compound | colony formation inhibitory effect ([1]; 50 nM) | colony formation inhibitory effect ([1]; 200 nM) | colony formation inhibition [1] | non-specific cytotoxicity [2] | migration of breast cancer cells induced to the serum-containing medium [6] | further results
1 | CN1C(=O)C2SSC1C(=O)N2C [A2, 5,7-dimethyl-2,3-dithia-5,7-diazabicyclo[2.2.2] octane-6,8-dione] | equal to or somewhat superior to that in the control vehicle-treated group | remarkably so as to be observed with the naked eye in all tested cells | efficiently inhibit colony formation | do not exhibit non-specific cytotoxicity |  | 
2 | C=CCN1C(=O)C2SSC1C(=O)N2CC=C [A5, 5,7-diallyl-2,3-dithia-5,7-diazabicyclo[2.2.2] octane-6,8-dione] | equal to or somewhat superior to that in the control vehicle-treated group | remarkably so as to be observed with the naked eye in all tested cells | efficiently inhibit colony formation | do not exhibit non-specific cytotoxicity |  | tumor volume over time ([3]; NSG mice, A5 300 mg/kg intraperitoneally every 3 days for 3 weeks): increase in tumor volume is suppressed; tumor size compared to untreated control group ([3]; humanized NSG mice (HuNSG), A5 300 mg/kg intraperitoneally every 3 days for 3 weeks): an effect of decreasing the tumor size is exerted; inhibiting tumor growth and decreasing tumor size, A5 alone versus pembrolizumab or A5 plus pembrolizumab ([3]; humanized NSG mice (HuNSG), pembrolizumab 5 mg/kg every 5 days for 3 weeks): superior to the pembrolizumab-treated group or the experimental group concurrently treated with A5 and pembrolizumab
3 | O=C1N2CCCC23SSC12CCCN2C3=O [A10, 5a, 10a-dithio-octahydrodipyrrolo[1,2-a:1′,2′-d]pyrazine-5,10-dione] | colony formation was inhibited in most cancer cells |  | efficiently inhibit colony formation | do not exhibit non-specific cytotoxicity |  | 
4 | CN1C(=O)C2(Cc3cn(C45CC67SSC(CO)(C(=O)N6C4Nc4ccccc45)N(C)C7=O)c4ccccc34)SSC1(CO)C(=O)N2C (stereo not drawn) [chetomin] |  |  |  |  | significantly decreased | viability at 2 h [4]: ≥ 80%; proliferation rate compared to DMSO-treated cells ([5]; chetomin 50 nM): significantly decreased
5 | CN1C(=O)C23CC4=CC=CC(O)C4N2C(=O)C1(CO)SS3 (stereo not drawn) [gliotoxin] |  |  |  |  | significantly decreased | viability [4]: ≥ 80%; proliferation rate compared to DMSO-treated cells ([5]; gliotoxin 100 nM): significantly decreased; increase of cell percentage in G1 phase compared to untreated group [7]: ≥ 10%
